From patent US8017350B2, “Glimepiride- and insulin-induced glycosylphosphatidylinositol-specific phospholipase C regulation” (Sanofi-Aventis Deutschland GmbH, priority 2004, dated 2011)

Biological target: T1, rat serum GPI-PLD (Rattus norvegicus, UniProt Q8R2H5)
T1 construct: GPI-PLD (rat serum) was assayed according to; from tissue; host or cells: rat serum
Experiment: GPI-PLD (rat serum) assay, human placental aP substrate
Assay type: biochemical
Details: FIG. 2; read-out: apparent IC50
Procedure: GPI-PLD (rat serum) was assayed according to “Hari et al. (1997) Biochim. Biophys. Acta 1355: 293-302” by incubation with 10 μl of human placental aP solution (100 U/ml in 10 mM Hepes/NaOH, pH 7.0, 150 mM NaCl) in 100 μl of 200 mM Tris/maleate (pH 7.0) and 1% Nonidet P-40 for 10 min at 37° C. and subsequent termination of the reaction by addition of 0.4 ml of ice-cold stop buffer (10 mM Hepes/NaOH, pH 7.0, 150 mM NaCl, 0.1 mM MgCl2 and 0.01 mM zinc acetate). GPI-PLC (T. brucei) was assayed as described in “Mensa-Wilmot et al. (1995) Methods Enzymol. […]
Pelleted hc/lcDIGs (10-50 μg protein) or (G)PI-PLC reaction mixtures (0.5 ml) were separated into amphiphilic and hydrophilic proteins using partitioning between TX-114-enriched and depleted phases according to “Bordier, C., (1981) J. Biol, Chem. […]” by suspending in 1 ml of ice-cold TX-114 (1%), 25 mM Tris/HCl (pH 7.4), 144 mM NaCl or mixing with 0.5 ml of ice-cold TX-114 (2%), respectively. […] After re-extraction of the lower TX-114-enriched phase, aliquots of the pooled upper TX-114-depleted phase were measured for 5′-Nuc, aP and AChE activity or precipitated (15 polyethylene glycol 4000) for SDS-PAGE analysis.
FIG. 2: Potency of GPI-2350. […] The lipolytic activity was calculated as % of the control reaction in the absence of GPI-2350 (set at 100%). […]

T1 sequence (Q8R2H5 24-843): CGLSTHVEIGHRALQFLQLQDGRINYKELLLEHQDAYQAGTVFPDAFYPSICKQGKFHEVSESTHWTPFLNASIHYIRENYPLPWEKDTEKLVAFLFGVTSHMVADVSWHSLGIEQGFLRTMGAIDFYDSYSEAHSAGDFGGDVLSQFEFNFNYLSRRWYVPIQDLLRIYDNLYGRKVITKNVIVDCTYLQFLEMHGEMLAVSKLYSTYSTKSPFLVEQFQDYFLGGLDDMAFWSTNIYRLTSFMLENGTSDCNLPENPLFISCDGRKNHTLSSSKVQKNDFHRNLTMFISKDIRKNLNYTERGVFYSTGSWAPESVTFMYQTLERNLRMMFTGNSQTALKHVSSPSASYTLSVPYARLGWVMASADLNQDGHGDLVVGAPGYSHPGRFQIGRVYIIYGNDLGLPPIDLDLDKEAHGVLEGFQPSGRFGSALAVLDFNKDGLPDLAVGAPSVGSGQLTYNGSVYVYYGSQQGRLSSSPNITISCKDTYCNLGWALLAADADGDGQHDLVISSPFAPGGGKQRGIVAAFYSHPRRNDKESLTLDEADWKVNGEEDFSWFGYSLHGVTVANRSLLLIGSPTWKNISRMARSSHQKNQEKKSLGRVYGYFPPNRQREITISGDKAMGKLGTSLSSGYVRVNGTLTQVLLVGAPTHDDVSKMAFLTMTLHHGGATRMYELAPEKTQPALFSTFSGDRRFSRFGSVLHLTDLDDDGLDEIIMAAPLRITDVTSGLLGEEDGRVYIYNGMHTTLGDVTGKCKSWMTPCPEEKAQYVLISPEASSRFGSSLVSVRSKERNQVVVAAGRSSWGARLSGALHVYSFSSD

CCCCCCCCCCCCP1(=O)O[C@@H]2[C@H](O)[C@@H](O)[C@H](O)[C@@H](O)[C@@H]2O1 (stereo partly shown) [GPI-2350, myo-inositol-1,2-cyclo-dodecylphosphonic acid]
IC50: 1000 nM
